# From patent US4987148A, “Biocidal 4,5-dichloro-1,2-dithiol-3-one composition” (Yoshitomi Pharmaceutical Industries, Ltd., priority 1989, dated 1991)
# Read-outs that look alike come from different tables or passages of the source.
# Assays:
# [1] = cited from earlier work
# [2] = tested on: viable microbes in industrial cooling water, washing water, raw water, power water; settings: raw water and power water, Kokoku No. 14294/1977; cited from earlier work
# [3] = Storage and stability test in polyethylene bottle in can at 60° C. (HPLC remaining rate; half life); assay type: physicochemical; settings: for Half life of dithiol compound: first order
# Description: The dithiol compound and N-methyl-2-pyrrolidone were mixed at the concentrations as shown in Table 4 to prepare compositions. Each 50 ml of the compositions was served in a polyethylene bottle, and the bottle was further served tightly in a can with a lid.
# The storage and stability tests were conducted by leaving the compositions standing at 60° C. for 11 days (or 15 days) and 30 days in the above state and examining the remaining rate of the dithiol compound based upon the measurement of area ratio at 317 nm by means of high performance liquid chromatography (HPLC).
# Since the decomposition rate of the dithiol compound fit to the first order reaction, a half life of the dithiol compound (t 1/2), in the each compositions at 60° C., was calculated with the following equation: […]
# wherein α represents a remaining percentage of the dithiol compound, k represents a decomposition rate constant of the dithiol compound and t represents a number of days.
# [4] = Solubility test: dithiol compound in 100 g of respective solvents at 25° C.; assay type: physicochemical
# Description: The solubilities (weight %) of the dithiol compound in 100 g of the respective solvents shown in Table 1 at 25° C. ar indicated in Table 1.
# [5] = Crystallization and redissolution test; assay type: physicochemical
# Description: In transparent 50 ml-glass vessels, the dithiol compound and N-methyl-2-pyrrolidone were mixed at the prescribed concentrations, and dissolved, if necessary, under heating. The crystals were yielded by cooling these solutions suitably, under the observation of the state. The crystallizing temperature was measured. The crystallized solutions were heated, and the temperature at which the crystals began to dissolve was measured.
# [6] = Storage and stability test in transparent glass vessels at 60° C. (50% compositions, HPLC remaining rate); assay type: physicochemical
# Description: In transparent 50 ml-glass vessels, a 50% N-methyl-2-pyrrolidone composition of the dithiol compound (the composition of the present invention), a 50% dimethylformamide composition containing 5 weight % diethylene glycol monomethyl ether, a 50% N-vinyl-2-pyrrolidone composition and a 50% 2-pyrrolidone composition of the dithiol compound (compositions for comparison) were prepared, and the storage and stability tests were conducted.
# The tests were conducted by leaving the compositions standing at 60° C. for 15 days and 30 days and examining the remaining rate of the dithiol compound based upon the measurement of area ratio at 317 nm by means of high performance liquid chromatography (HPLC).
# [7] = powdery form; cited from earlier work
# [8] = cited from earlier work; remark: listed apart in the source
# [9] = cited from earlier work; remark: listed apart in the source
# [10] = State of compositions (crystallization, solidification, scoopability, stability) in storage and at low temperature; assay type: physicochemical; settings: compositions with N-methyl-2-pyrrolidone
# [11] = 10 weight % in N-methyl-2-pyrrolidone
# [12] = 20 weight % in N-methyl-2-pyrrolidone
# [13] = 30 weight % in N-methyl-2-pyrrolidone
# [14] = 40 weight % in N-methyl-2-pyrrolidone
# [15] = 50 weight % in N-methyl-2-pyrrolidone
# [16] = 60 weight % in N-methyl-2-pyrrolidone
# [17] = 70 weight % in N-methyl-2-pyrrolidone
# [18] = 80 weight % in N-methyl-2-pyrrolidone
structure (smiles),measurement,setting,value
CN1CCCC1=O [N-Methyl-2-pyrrolidone],"Odor, inflammability, toxicity",[1]; solvent N-Methyl-2-pyrrolidone,"few problems in terms of odor, inflammability, toxicity"
CN(C)C=O [dimethylformamide],Toxicity,[1]; solvent,inherently so strong in toxicity
"O=c1ssc(Cl)c1Cl [dithiol compound, 4,5-Dichloro-l,2-dithiol-3-one]",Slime control,[2],excellent slime control agent
same,Remaining percentage of dithiol compound,"[3]; 5% in N-methyl-2-pyrrolidone, 15 days",70.8%
same,Remaining percentage of dithiol compound,"[3]; 5% in N-methyl-2-pyrrolidone, 30 days",58.3%
same,Half life of dithiol compound,[3]; 5% in N-methyl-2-pyrrolidone,39 days
same,Remaining percentage of dithiol compound,"[3]; 10% in N-methyl-2-pyrrolidone, 11 days",90.5%
same,Remaining percentage of dithiol compound,"[3]; 10% in N-methyl-2-pyrrolidone, 30 days",83.2%
same,Half life of dithiol compound,[3]; 10% in N-methyl-2-pyrrolidone,103 days
same,Remaining percentage of dithiol compound,"[3]; 15% in N-methyl-2-pyrrolidone, 11 days",93.7%
same,Remaining percentage of dithiol compound,"[3]; 15% in N-methyl-2-pyrrolidone, 30 days",87.4%
same,Half life of dithiol compound,[3]; 15% in N-methyl-2-pyrrolidone,145 days
same,Remaining percentage of dithiol compound,"[3]; 20% in N-methyl-2-pyrrolidone, 11 days",93.8%
same,Remaining percentage of dithiol compound,"[3]; 20% in N-methyl-2-pyrrolidone, 30 days",88.2%
same,Half life of dithiol compound,[3]; 20% in N-methyl-2-pyrrolidone,153 days
same,Remaining percentage of dithiol compound,"[3]; 25% in N-methyl-2-pyrrolidone, 11 days",94.3%
same,Remaining percentage of dithiol compound,"[3]; 25% in N-methyl-2-pyrrolidone, 30 days",89.0%
same,Half life of dithiol compound,[3]; 25% in N-methyl-2-pyrrolidone,165 days
same,Remaining percentage of dithiol compound,"[3]; 30% in N-methyl-2-pyrrolidone, 11 days",95.6%
same,Remaining percentage of dithiol compound,"[3]; 30% in N-methyl-2-pyrrolidone, 30 days",88.8%
same,Half life of dithiol compound,[3]; 30% in N-methyl-2-pyrrolidone,174 days
same,Remaining percentage of dithiol compound,"[3]; 35% in N-methyl-2-pyrrolidone, 11 days",95.7%
same,Remaining percentage of dithiol compound,"[3]; 35% in N-methyl-2-pyrrolidone, 30 days",89.3%
same,Half life of dithiol compound,[3]; 35% in N-methyl-2-pyrrolidone,181 days
same,Remaining percentage of dithiol compound,"[3]; 40% in N-methyl-2-pyrrolidone, 11 days",96.6%
same,Remaining percentage of dithiol compound,"[3]; 40% in N-methyl-2-pyrrolidone, 30 days",90.4%
same,Half life of dithiol compound,[3]; 40% in N-methyl-2-pyrrolidone,209 days
same,Remaining percentage of dithiol compound,"[3]; 50% in N-methyl-2-pyrrolidone, 15 days",97.3%
same,Remaining percentage of dithiol compound,"[3]; 50% in N-methyl-2-pyrrolidone, 30 days",93.3%
same,Half life of dithiol compound,[3]; 50% in N-methyl-2-pyrrolidone,300 days
same,Solubility,"[4]; in 1,2-Bis(bromoacetoxy)ethane",21.9 weight %
same,Solubility,[4]; in 2-Pyrrolidone,51.0 weight %
same,Amount by weight of dissolved dithiol compound,"[4]; in 100 g 1,2-Bis(bromoacetoxy)ethane",28 g
same,Amount by weight of dissolved dithiol compound,[4]; in 100 g 2-Pyrrolidone,104 g
same,Amount by weight of dissolved dithiol compound,[4]; in 100 g Dimethylformamide containing 5 weight % diethylene glycol monomethyl ether,206 g
same,Amount by weight of dissolved dithiol compound,[4]; in 100 g N-Methyl-2-pyrrolidone,222 g
same,Amount by weight of dissolved dithiol compound,[4]; in 100 g N-Vinyl-2-pyrrolidone,117 g
same,Solubility,[4]; in Dimethylformamide containing 5 weight % diethylene glycol monomethyl ether,67.3 weight %
same,Solubility,[4]; in N-Methyl-2-pyrrolidone,68.9 weight %
same,Solubility,[4]; in N-Vinyl-2-pyrrolidone,53.9 weight %
same,Crystallizing temperature,[5]; [11],-29.3 °C
same,Crystals-dissolving temperature,[5]; [11],-23.7 °C
same,Crystallizing temperature,[5]; [12],-27.8 °C
same,Crystals-dissolving temperature,[5]; [12],-22.7 °C
same,Crystallizing temperature,[5]; [13],-22.0 °C
same,Crystals-dissolving temperature,[5]; [13],-16.2 °C
same,Crystallizing temperature,[5]; [14],-18.8 °C
same,Crystals-dissolving temperature,[5]; [14],-9.2 °C
same,Crystallizing temperature,[5]; [15],-18.3 °C
same,Crystals-dissolving temperature,[5]; [15],4.7 °C
same,Crystallizing temperature,[5]; [16],-13.3 °C
same,Crystals-dissolving temperature,[5]; [16],12.0 °C
same,Crystallizing temperature,[5]; [17],6.0 °C
same,Crystals-dissolving temperature,[5]; [17],26.5 °C
same,Crystallizing temperature,[5]; [18],26.8 °C
same,Crystals-dissolving temperature,[5]; [18],36.2 °C
same,Remaining percentage of dithiol compound,"[6]; 50% in 2-pyrrolidone, 60° C., 15 days",38.9%
same,Remaining percentage of dithiol compound,"[6]; 50% in 2-pyrrolidone, 60° C., 30 days",18.0%
same,Remaining percentage of dithiol compound,"[6]; 50% in Dimethylformamide containing 5 weight % diethylene glycol monomethyl ether, 60° C., 15 days",94.2%
same,Remaining percentage of dithiol compound,"[6]; 50% in Dimethylformamide containing 5 weight % diethylene glycol monomethyl ether, 60° C., 30 days",84.7%
same,Remaining percentage of dithiol compound,"[6]; 50% in N-methyl-2-pyrrolidone, 60° C., 15 days",97.3%
same,Remaining percentage of dithiol compound,"[6]; 50% in N-methyl-2-pyrrolidone, 60° C., 30 days",93.3%
same,Observation on mixing with N-vinyl-2-pyrrolidone,"[6]; N-Vinyl-2-pyrrolidone composition could not be obtained, in a few minutes after mixing",exothermic polymerization reaction occurred intensively
same,Decomposition of dithiol compound in the composition of the invention,"[6]; in N-methyl-2-pyrrolidone, left standing 15 days and 30 days, 60° C.",scarcely decomposed
same,Skin irritancy,[7],highly skin-irritant
same,Stability in aqueous solution,[8]; aqueous solution,very unstable in the obtained aqueous solution and susceptible to hydrolysis in a short period of time
same,Solubility in water,[8]; water,below 1%
same,Storage and stability of the dithiol compound,"[9]; diethylene glycol monomethyl ether / dimethylformamide preparations, long period",insufficient to storage and stability of the dithiol compound over a long period
same,Solubility of the dithiol compound,"[9]; in 1,2-bis(bromoacetoxy)ethane, U.S. Pat. No. 4647577",about 22%
same,Solubility of the dithiol compound,"[9]; in mixed solvent of diethylene glycol monomethyl ether and dimethylformamide, 25° C., Kokoku No. 23721/1987",about 67 weight %
same,Storage and stability of the effective ingredient,[10],extremely high
